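Tested at 5 concentrations; 48 h exposure; 96-well plates; endpoints linearly interpolated, else capped at highest concentration. Abbreviation: GI50, concentration required for 50% inhibition of growth. The concentration for full growth arrest is given as TGI.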

The experiment concerns MDA-MB-468 breast. The experiment in a line: NCI-60 cell line screen, 48 h.
For the compound `CN1CCN(CCCn2c(=O)c3sc4ncccc4c3n3nnc(-c4ccccc4)c23)CC1`, the GI50 was 6.84 µM and the TGI was 13.9 µM.
In the case of `CN(C(=O)c1ccc(C(F)(F)F)cc1)c1ccc(Oc2ccc3c(c2)cc(C(=O)N2CCN(Cc4ccc(OC(F)F)cc4)CC2)n3C)nc1`, the GI50 was less than 0.01 µM and the TGI turned out to be 28.6 µM.
The like results for `O=C(/C=C/c1ccncc1)c1cc(Cl)ccc1O` were, in that order, 18.1 µM and 33 µM.
`COc1ccc(-c2nnc(COc3ccc(NC(=O)Nc4cc(C(F)(F)F)cc(C(F)(F)F)c4)cc3F)o2)cc1`: the GI50 is 1.55 µM and the TGI was 5.04 µM.
Take `Cc1cc(/C=C/c2ccc3cc(N(C)C)ccc3[n+]2C)c(C)n1-c1ccccc1`: the GI50 was 0.0486 µM and the TGI worked out at 0.23 µM.
For the compound `N#C/C(=N\Nc1ccc(F)cc1)C(=O)Nc1cc(-c2ccccc2)nn1-c1ccccc1`, the GI50 was 1.46 µM and the TGI was found to be 6.01 µM.
In the case of `CC[C@H](Nc1ncnc2nc[nH]c12)c1oc2ccccc2c(=O)c1-c1cccc(F)c1`, the GI50 was 9.08 µM and the TGI worked out at 34.4 µM.
For the compound `CCN1CCN(c2nc(C)cc(N(CCNc3ccnc4cc(Cl)ccc34)Cc3ccc4c(c3)OCO4)n2)CC1`, the GI50 was 1.55 µM and the TGI is 3.34 µM.
The like results for `Fc1cc2[nH]ncc2c2c3c(c(-c4cn[nH]c4)nc12)CCCC3` were, in that order, 0.857 µM and 2.58 µM.
For `CCCCCCCC(=O)SCC/C=C/[C@@H]1CC(=O)NCc2cc(ccn2)C2=N[C@@](C)(CS2)C(=O)N[C@@H](C(C)C)C(=O)O1`, the GI50 is 0.055 µM and the TGI is more than 33.3 µM.
In the case of `COc1ccc(/C=C(/C#N)n2nnc3cccc(F)c32)cc1`, the GI50 is 0.414 µM and the TGI was determined as 5.12 µM.
`CC(C)[C@H]1COC(=O)N1[C@@H]1C(=O)N([C@@H](CCC(=O)N2CCN(C3CCCC3)CC2)C(=O)N[C@@H]2CCCc3ccccc32)[C@@H]1/C=C/c1cccc(Br)c1`: the GI50 is 0.688 µM and the TGI was found to be 2.12 µM.
Regarding `COc1ccc(-c2nnc(COc3ccc(C(=O)/C=C/c4ccco4)cc3)o2)cc1`, the GI50 is 1.89 µM and the TGI was determined as 4.12 µM.
Regarding `OCc1ccc(-c2ccc(-c3ccc(CO)s3)o2)s1`, the TGI was determined as 0.023 µM.
With `C=C1NC(=O)C(C(C)CC)NC(=O)C2CSCC(NC(=O)CCC(=O)O)C(=O)NC(Cc3ccccc3)C(=O)NC(C)C(=O)NC(CC(C)CC)C(=O)NC(C(=O)NC(Cc3ccccc3)C(=O)N3CCCC3C(=O)N2)C(C)OC(=O)C(CO)NC(=O)C(C(O)COC)N(C)C(=O)C(C(C)C)NC(=O)C(CC(C)CC)NC1=O` (configuration not stated), the GI50 is less than 0.014 µM.
Regarding `Cc1cc(-c2ccc3nc(C4CCOCC4)n(CCOC(F)(F)F)c3c2)cn(C)c1=O`, the GI50 is 0.188 µM and the TGI stood at 2.25 µM.
The like results for `CCN(CC)c1ccc(-c2cc(-c3cc(OC)c(OC)c(OC)c3)nc(N3CCOCC3)c2C#N)cc1` were, in that order, 2.58 µM and more than 100 µM.
On the same counts, the results for `O=c1c2sccc2n(CC2COc3ccccc3O2)c(=O)n1O` (configuration not stated) are 4.61 µM and 57.4 µM.
`OC(c1cc(-c2ccc(C(F)(F)F)cc2)nc(-c2ccc(C(F)(F)F)cc2)c1)C1CCCCN1` (configuration not stated): the GI50 is 1.47 µM and the TGI turned out to be 2.82 µM.
In the case of `Cn1cnc([N+](=O)[O-])c1S(=O)(=O)Oc1cccc2ccccc12`, the GI50 was 1.85 µM and the TGI came out at 3.84 µM.
`O=C1c2cc3c(cc2-c2c1c1ccc(F)cc1c(=O)n2CCCNCCO)OCO3`: the GI50 is 0.0228 µM and the TGI was determined as 0.0705 µM.
Turning to `COc1cccc(-c2nc(-c3ccc(NC(=O)C(C)C)cc3)[nH]c2-c2ccnc(Br)c2)c1`, the GI50 was 1.89 µM and the TGI was 5.4 µM.
Consider `CO[C@H]1/C=C(/C)CCC[C@H](C)[C@H](O)[C@@H](C)C(=O)C(C)(C)[C@@H](O)CC(=O)O[C@@H]1/C(C)=C/c1csc(C)n1`, for which the GI50 was less than 0.01 µM and the TGI stood at 0.0463 µM.
Take `O=C(CSc1ccc(Cl)cc1)Nc1ccc(-c2nc3ccccc3s2)c(Cl)c1`: the GI50 is 4.52 µM and the TGI worked out at 48.5 µM.
For `COc1cc(/C=C/C(=O)c2cc(OC)c(OC)c(OC)c2)ccc1OCc1ccccc1`, the GI50 is 2.15 µM and the TGI turned out to be 7.98 µM.
On to `Nc1ncnc2c1nnn2C1OC(CO)C(O)C1O` (configuration not stated), for which the GI50 was 0.234 µM and the TGI was 1.26 µM.
For `O=C1OC(O)[C@@H]2[C@H]1[C@H]1CC[C@@H]2O1` (some centres not stated), the GI50 is 85.9 µM and the TGI was more than 100 µM.
Regarding `COc1cc(/C=C/c2cc(O)c(C(C)=O)c(O)c2)cc2c1O[C@]1(C)CC[C@@H](O)C(C)(C)[C@H]1C2`, the GI50 was 4.75 µM and the TGI was determined as 31.2 µM.
As for `O=C(/C=C/c1ccc(Cl)cc1)c1ccc(Nc2ccnc3cc(Cl)ccc23)cc1`, the GI50 is 43.1 µM and the TGI is more than 100 µM.
Take `O=C(CCc1nnc2sc(-c3ccc(Cl)cc3Cl)nn12)c1nc2ncccc2[nH]1`: the GI50 was 2.09 µM and the TGI was 4.41 µM.
`C/C(=C(/c1ccc(O)cc1)c1ccc(OCCN2CCCC2)cc1)c1ccc(Cl)cc1`: the GI50 was 1.88 µM and the TGI came to 4.11 µM.
For `C=C1C(=O)O[C@H]2[C@H]1CC/C(COC(=O)c1c[nH]c3ccccc13)=C\CC[C@@]1(C)O[C@@H]21`, the GI50 was 0.19 µM and the TGI was found to be 0.448 µM.
